# Results taken from PubChem BioAssay AID2060615 (Molecular Pharmacology Branch, DTP, NCI, 2025).
# pIC50: −log10 of the molar value.
# Test system: 496974-208-R-J2-PDC complex spheroids, growth % test/control
# Test: Anticancer human tumor 496974-208-R-J2-PDC patient-derived pancreatic carcinoma cell line growth inhibition [CLK]
# Conditions: for pIC50: curve of first compound; for viability, T/C: stronger effect = lower value
# Excerpt: A high-throughput screen of multi-cell type tumor spheroids was designed to identify active combinations of […] and targeted small molecules. Complex spheroids include a stromal component modeled by human endothelial cells (HUVEC) and fibroblasts modeled by human mesenchymal stem cells (MSCs). The concentration ranges selected for each drug and investigational agent were based upon clinically achievable concentrations if the clinical Cmax of the agent was known.
# Compounds. The drugs and investigational agents: cirtuvivint (SM08502; NSC835563), CC-671 (NSC850746), vemurafenib (NSC761431), tapotoclax (NSC804041), sotorasib (NSC818433), adagrasib (NSC831453), MRTX-1133 (NSC836407), BAY2416964 (NSC825713), copanlisib (NSC816437), inavolisib (NSC800729), abemaciclib (NSC768073), osimertinib (NSC779217), entinostat (NSC756642), eltanexor (KPT-8602, NSC794443), venetoclax (NSC766270), ceralasertib (NSC777638), bortezomib (NSC756655), olaparib (NSC753686), talazoparib (NSC767125), alisertib (NSC759677), peposertib (NSC802822), gemcitabine (NSC613327), 5-fluorouracil (NSC19893), SN-38 (NSC673596), oxaliplatin (NSC266046), paclitaxel (NSC125973), and doxorubicin (NSC123127), were obtained from the National Cancer Institute (NCI) Developmental Therapeutics Program Chemical Repository. The FDA-approved anticancer drug set is available from the Developmental Therapeutics Program at https://dtp.cancer.gov/organization/dscb/obtaining/available plates.htm. […] The stock solutions were prepared in dimethyl sulfoxide (DMSO, Sigma-Aldrich, St. Louis, MO, cat. D2650), except for the platinum complexes which were prepared in saline (Quality Biological, Gaithersburg, MD, cat. 114-055-101), at 800-fold the tested concentration and stored at -70 degrees C prior to their use. All drugs and investigational agents were tested over a range starting from a high concentration at or near the clinical Cmax and decreasing in half-log increments. If the clinical Cmax for an agent had not been determined, the highest concentration tested was 10 microM.
# Cell Culture. All cells were maintained in an incubator at 37 degrees C and 5% CO2 with 95% humidity. The PDC lines were cultured according to standard operating procedures established by the NCI PDMR. Briefly, all PDCs were thawed and cultured in Matrigel-coated flasks prepared with a working solution of 1X Ham's F-12 nutrient mix, without supplementation (Invitrogen, Waltham, MA, cat. 11765054), 100 U/mL penicillin-streptomycin (Invitrogen, cat. 15140122), and 2.5% Matrigel (Corning Inc., Corning, NY, cat. 354248) for the first three passages. The 947758-054-R-J2-PDC line was cultured in 6B/Colon 1A media, which includes advanced DMEM/F-12 (Thermo Fisher Scientific, cat. 12634028), 10 mM HEPES (Thermo Fisher Scientific, cat. 15630080), 1X GlutaMAX supplement (Thermo Fisher Scientific, cat. 35050061), 0.1 mg/mL primocin (InvivoGen, cat. ant-pm-2), 10% defined fetal bovine serum, heat inactivated (HyClone Laboratories Inc., cat. SH30070.03HI), 1.25 mM N-Acetyl-L-cysteine (Sigma-Aldrich, cat. A9165), 10 mM nicotinamide (Sigma-Aldrich, cat. N0636), 1X B-27 supplement (Thermo Fisher Scientific, cat. 17504044), 1X N-2 supplement (Thermo Fisher Scientific, cat. 17502048), and 10 microM Y-27632 dihydrochloride (Tocris Bioscience, cat. 1254). The 876862-298-R-J1-PDC was cultured in 6E media, which includes all 6B/Colon 1A media components plus 50% L-WRN conditioned media (ATCC, cat. CRL-3276), 50 ng/mL recombinant human EGF recombinant protein (hEGF; Thermo Fisher Scientific, cat. PHG0311), 10 ng/mL recombinant human fibroblast growth factor 10 (hGFG-10; PeproTech, cat. 100-26), 1 ng/mL recombinant human fibroblast growth factor 2 (hFGF-2; PeproTech, cat. 100-18B), and 1 µM prostaglandin E2 (PGE2; Tocris, cat. 2296). The 227483-062-R1-J1-PDC line was cultured in Panc media, containing all 6E components except hFGF-2, with the addition of 500 nM SB-431542 (Selleckchem, cat. S1067) and 10 nM gastrin (Tocris, cat. 3006). […]
# 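Note: spheroids exposed to the drugs for 7 days before readout.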
# 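Throughout, for viability, T/C: 100% = DMSO vehicle control wells.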
structure (smiles),measurement,setting,value
Cn1ncnc1[C@H]1c2n[nH]c(=O)c3cc(F)cc(c23)N[C@@H]1c1ccc(F)cc1 + CNC(=O)c1ccc(Nc2nc(OC3CCCC3)c3c(-c4ccc5nc(C)oc5c4)c[nH]c3n2)c(OC)c1,pIC50,second compound 0.0316 µM,< 7.00
same,pIC50,second compound 0.1 µM,< 7.00
same,pIC50,second compound 0.316 µM,< 7.00
same,pIC50,second compound 1 µM,< 7.00
same,pIC50,second compound 3.16 µM,< 7.00
same,pIC50,second compound 10 µM,< 7.00
same,"viability, T/C","second compound 0.0316 µM, first compound 0.000316 µM",103%
same,"viability, T/C","second compound 0.0316 µM, first compound 0.001 µM",110%
same,"viability, T/C","second compound 0.0316 µM, first compound 0.00316 µM",95%
same,"viability, T/C","second compound 0.0316 µM, first compound 0.01 µM",100%
same,"viability, T/C","second compound 0.0316 µM, first compound 0.0316 µM",98.2%
same,"viability, T/C","second compound 0.0316 µM, first compound 0.1 µM",85.7%
same,"viability, T/C","second compound 0.1 µM, first compound 0.000316 µM",77%
same,"viability, T/C","second compound 0.1 µM, first compound 0.001 µM",83.3%
same,"viability, T/C","second compound 0.1 µM, first compound 0.00316 µM",83.1%
same,"viability, T/C","second compound 0.1 µM, first compound 0.01 µM",94.6%
same,"viability, T/C","second compound 0.1 µM, first compound 0.0316 µM",74.6%
same,"viability, T/C","second compound 0.1 µM, first compound 0.1 µM",78%
same,"viability, T/C","second compound 0.316 µM, first compound 0.000316 µM",82%
same,"viability, T/C","second compound 0.316 µM, first compound 0.001 µM",84%
same,"viability, T/C","second compound 0.316 µM, first compound 0.00316 µM",99.9%
same,"viability, T/C","second compound 0.316 µM, first compound 0.01 µM",80.4%
same,"viability, T/C","second compound 0.316 µM, first compound 0.0316 µM",78.3%
same,"viability, T/C","second compound 0.316 µM, first compound 0.1 µM",67.9%
same,"viability, T/C","second compound 1 µM, first compound 0.000316 µM",72.4%
same,"viability, T/C","second compound 1 µM, first compound 0.001 µM",73.5%
same,"viability, T/C","second compound 1 µM, first compound 0.00316 µM",68.9%
same,"viability, T/C","second compound 1 µM, first compound 0.01 µM",76.7%
same,"viability, T/C","second compound 1 µM, first compound 0.0316 µM",74.9%
same,"viability, T/C","second compound 1 µM, first compound 0.1 µM",65%
same,"viability, T/C","second compound 3.16 µM, first compound 0.000316 µM",69.3%
same,"viability, T/C","second compound 3.16 µM, first compound 0.001 µM",62.8%
same,"viability, T/C","second compound 3.16 µM, first compound 0.00316 µM",57.4%
same,"viability, T/C","second compound 3.16 µM, first compound 0.01 µM",61.5%
same,"viability, T/C","second compound 3.16 µM, first compound 0.0316 µM",67.2%
same,"viability, T/C","second compound 3.16 µM, first compound 0.1 µM",65%
same,"viability, T/C","second compound 10 µM, first compound 0.000316 µM",55.5%
same,"viability, T/C","second compound 10 µM, first compound 0.001 µM",55%
same,"viability, T/C","second compound 10 µM, first compound 0.00316 µM",55.7%
same,"viability, T/C","second compound 10 µM, first compound 0.01 µM",54.1%
same,"viability, T/C","second compound 10 µM, first compound 0.0316 µM",54.2%
same,"viability, T/C","second compound 10 µM, first compound 0.1 µM",52.7%
